Assay results reported in paper PMC10824269 (Journal of the American Chemical Society, 2021).

Target: GsTyDC/DDC (Gloriosa superba, UniProt A0A7D5Q853)
Type: cell-based
Conditions: leaves of N. benthamiana

N[C@@H](Cc1ccc(O)c(O)c1)C(=O)O [L-DOPA]
LC-MS, transient expression in N. benthamiana: GsTyDC/DDC is capable of acting on act on either L-Tyr or L-DOPA (Figure S15)
